Each block holds one molecule with its values, some of them ahead of it.
Experiments:
[1] = tested on: ornithine decarboxylase (ODC); assay: Ornithine decarboxylase assay, inhibition of TPA induction of ODC; assay type: cell-based; details: esters of Compounds 9 and 10
RAR and RXR receptors = assay: Binding to the retinoid receptors taken together; details: RARs and RXRs; compounds 9 and 10 versus ATRA and 9-cis
RARs and RXRs = assay: Co-transfection assay, RAR and RXR receptors taken together; assay type: cell-based
Description: Utilizing the "cis-trans" or "co-transfection" assay described by Evans et al., Science, 240:889-95 (May 13, 1988), the disclosure of which is herein incorporated by reference, the retinoid compounds of the present invention were tested and found to have strong, specific activity as either selective RAR agonists, selective RXR agonists, or as pan-agonist activators of both RAR and RXR receptors. This assay is described in further detail in U.S. Pat. Nos. 4,981,784 and 5,071,773, the disclosures of which are incorporated herein by reference.
In the co-transfection assay, a cloned cDNA for an IR (e.g., human RARα, RARβ, RXRγ) under the control of a constitutive promoter (e.g., the SV 40 promoter) is introduced by transfection (a procedure to induce cells to take up foreign genes) into a background cell substantially devoid of endogenous IRs. This introduced gene directs the recipient cells to make the IR protein of interest. A second gene is also introduced (co-transfected) into the same cells in conjunction with the IR gene. This second gene, comprising the cDNA for a reporter protein, such as firefly luciferase (LUC), is controlled by an appropriate hormone responsive promoter containing a hormone response element (HRE). This reporter plasmid functions as a reporter for the transcription-modulating activity of the target IR. Thus, the reporter acts as a surrogate for the products (mRNA then protein) normally expressed by a gene under control of the target receptor and its native hormone.
The co-transfection assay can detect small molecule agonists or antagonists of target IRs. Exposing the transfected cells to an agonist ligand compound increases reporter activity in the transfected cells. This activity can be conveniently measured, e.g., by increasing luciferase production, which reflects compound-dependent, IR-mediated increases in reporter transcription. […] . Increasing concentrations of a suspected antagonist will decrease the reporter signal (e.g., luciferase production). The co-transfection assay is therefore useful to detect both agonists and antagonists of specific IRs. Furthermore, it determines not only whether a compound interacts with a particular IR, but whether this interaction mimics (agonizes) or blocks (antagonizes) the effects of the native regulatory molecules on target gene expression, as well as the specificity and strength of this interaction.
To determine RAR and/or RXR agonist activity of the compounds of the present invention, the CV-1 cells were transiently transfected by calcium phosphate coprecipitation according to the procedure of Berger et al., 41 J. Steroid Biochem. Mol. Biol., 733 (1992) with the following receptor expressing plasmids: pRShRARα: Giguere et at., 330 Nature, 624 (1987); pRShRARβ and pRShRARγ, Ishikawa et al., 4 Mol. Endocrin., 837 (1990); pRShRXRα, Mangelsdorf et at., 345 Nature, 224 (1990); and pRSmRXRβ and pRSmRXRγ, Mangelsdorf et al., 6 Genes & Devel., 329 (1992), the disclosures of which are herein incorporated by reference. Each of these receptor expressing plasmids was co-transfected at a concentration of 5 ng/well, along with a basal reporter plasmid at 100 ng/well, the internal control plasmid pRS-β-Gal at 50 ng/well and filler DNA, pGEM at 45 ng/well.

RARγ = biological target: T1, RARγ (Homo sapiens, UniProt P13631); assay: Co-transfection assay, RARγ agonist activity; assay type: cell-based
T1 construct: expressed in transfected cells; host or cells: CV-1 (African green monkey kidney)
T1 sequence (P13631 1-454): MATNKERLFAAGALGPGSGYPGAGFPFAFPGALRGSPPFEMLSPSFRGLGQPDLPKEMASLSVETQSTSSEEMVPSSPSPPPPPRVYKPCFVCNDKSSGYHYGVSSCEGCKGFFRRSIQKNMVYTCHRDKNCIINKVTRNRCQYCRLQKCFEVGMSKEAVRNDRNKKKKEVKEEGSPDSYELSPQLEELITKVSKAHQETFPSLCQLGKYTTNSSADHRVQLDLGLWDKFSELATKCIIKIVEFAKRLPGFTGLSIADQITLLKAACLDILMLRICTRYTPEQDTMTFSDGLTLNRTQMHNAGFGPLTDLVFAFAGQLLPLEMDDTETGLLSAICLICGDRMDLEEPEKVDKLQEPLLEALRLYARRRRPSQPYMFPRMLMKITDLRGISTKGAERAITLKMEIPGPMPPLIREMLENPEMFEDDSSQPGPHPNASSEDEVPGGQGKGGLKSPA

RXRβ = biological target: T2, RXRβ (Mus musculus, UniProt P28704); assay: Co-transfection assay, RXRβ agonist activity; assay type: cell-based; details: CV-1 cells, 40 hours, read-out: Potency (EC50) RXRβ
T2 construct: expressed in transfected cells; host or cells: CV-1 (African green monkey kidney)
T2 sequence (P28704 1-520): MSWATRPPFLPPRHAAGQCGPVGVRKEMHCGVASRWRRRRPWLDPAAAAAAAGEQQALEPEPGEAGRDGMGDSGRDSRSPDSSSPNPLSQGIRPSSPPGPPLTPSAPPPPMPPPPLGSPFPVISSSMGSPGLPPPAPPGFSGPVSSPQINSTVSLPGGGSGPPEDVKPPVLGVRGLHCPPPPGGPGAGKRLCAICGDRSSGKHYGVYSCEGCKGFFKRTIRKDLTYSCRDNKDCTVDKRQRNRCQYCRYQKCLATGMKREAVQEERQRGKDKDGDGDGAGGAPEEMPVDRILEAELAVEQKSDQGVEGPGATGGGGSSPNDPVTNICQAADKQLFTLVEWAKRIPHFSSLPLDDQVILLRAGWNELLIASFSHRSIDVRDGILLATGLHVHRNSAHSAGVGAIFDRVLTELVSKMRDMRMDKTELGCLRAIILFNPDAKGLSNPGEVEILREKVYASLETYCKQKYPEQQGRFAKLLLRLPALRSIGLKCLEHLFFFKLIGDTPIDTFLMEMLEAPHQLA

RXRγ = biological target: T3, RXRγ (Mus musculus, UniProt P28705); assay: Co-transfection assay, RXRγ agonist activity; assay type: cell-based; details: CV-1 cells, 40 hours, read-out: Potency (EC50) RXRγ
T3 construct: expressed in transfected cells; host or cells: CV-1 (African green monkey kidney)
T3 sequence (P28705 1-463): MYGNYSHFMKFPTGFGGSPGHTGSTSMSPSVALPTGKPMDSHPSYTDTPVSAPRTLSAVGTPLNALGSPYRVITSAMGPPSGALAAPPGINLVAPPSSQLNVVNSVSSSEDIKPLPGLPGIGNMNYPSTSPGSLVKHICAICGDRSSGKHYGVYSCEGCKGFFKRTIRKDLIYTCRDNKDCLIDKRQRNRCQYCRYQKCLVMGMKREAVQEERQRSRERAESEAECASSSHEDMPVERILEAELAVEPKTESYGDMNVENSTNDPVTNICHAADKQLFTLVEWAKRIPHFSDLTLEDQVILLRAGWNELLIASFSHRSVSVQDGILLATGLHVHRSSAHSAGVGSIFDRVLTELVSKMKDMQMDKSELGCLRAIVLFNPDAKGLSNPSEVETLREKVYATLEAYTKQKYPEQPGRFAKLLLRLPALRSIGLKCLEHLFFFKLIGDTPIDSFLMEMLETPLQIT

RARα = biological target: T4, RARα (Homo sapiens, UniProt P10276); assay: Co-transfection assay, RARα agonist activity; assay type: cell-based; details: CV-1 cells, 40 hours, read-out: Potency (EC50) RARα
T4 construct: expressed in transfected cells; host or cells: CV-1 (African green monkey kidney)
T4 sequence (P10276 1-462): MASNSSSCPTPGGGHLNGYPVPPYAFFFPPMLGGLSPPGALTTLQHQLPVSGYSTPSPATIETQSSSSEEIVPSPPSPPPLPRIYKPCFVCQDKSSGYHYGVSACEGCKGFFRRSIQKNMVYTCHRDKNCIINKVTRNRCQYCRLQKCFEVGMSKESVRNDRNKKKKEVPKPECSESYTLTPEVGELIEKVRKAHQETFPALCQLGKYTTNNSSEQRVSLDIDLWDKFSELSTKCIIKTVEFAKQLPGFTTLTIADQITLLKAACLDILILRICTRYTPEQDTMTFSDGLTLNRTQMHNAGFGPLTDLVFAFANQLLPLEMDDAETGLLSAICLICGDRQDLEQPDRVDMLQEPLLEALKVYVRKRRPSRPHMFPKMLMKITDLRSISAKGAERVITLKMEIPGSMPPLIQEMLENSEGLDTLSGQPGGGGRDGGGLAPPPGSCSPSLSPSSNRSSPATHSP

RXRα = biological target: T5, RXRα (Homo sapiens, UniProt P19793); assay: Co-transfection assay, RXRα agonist activity; assay type: cell-based; details: CV-1 cells, 40 hours, read-out: Potency (EC50) RXRα
T5 construct: expressed in transfected cells; host or cells: CV-1 (African green monkey kidney)
T5 sequence (P19793 1-462): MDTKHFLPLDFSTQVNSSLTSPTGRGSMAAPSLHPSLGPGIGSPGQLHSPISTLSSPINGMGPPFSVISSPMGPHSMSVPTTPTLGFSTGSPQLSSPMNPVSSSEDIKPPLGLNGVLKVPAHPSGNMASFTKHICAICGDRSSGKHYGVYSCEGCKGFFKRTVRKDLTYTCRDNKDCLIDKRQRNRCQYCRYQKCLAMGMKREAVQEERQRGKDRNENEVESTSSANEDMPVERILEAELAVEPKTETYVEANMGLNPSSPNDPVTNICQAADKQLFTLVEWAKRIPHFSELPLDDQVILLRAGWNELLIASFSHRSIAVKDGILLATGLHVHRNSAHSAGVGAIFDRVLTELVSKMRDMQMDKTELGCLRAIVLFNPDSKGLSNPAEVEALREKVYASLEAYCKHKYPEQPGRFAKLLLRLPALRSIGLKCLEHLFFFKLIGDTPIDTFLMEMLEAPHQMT

RARβ = biological target: T6, RARβ (Homo sapiens, UniProt P10826); assay: Co-transfection assay, RARβ agonist activity; assay type: cell-based; details: CV-1 cells, 40 hours, read-out: Potency (EC50) RARβ
T6 construct: expressed in transfected cells; host or cells: CV-1 (African green monkey kidney)
T6 sequence (P10826 1-448 isoform P10826-2): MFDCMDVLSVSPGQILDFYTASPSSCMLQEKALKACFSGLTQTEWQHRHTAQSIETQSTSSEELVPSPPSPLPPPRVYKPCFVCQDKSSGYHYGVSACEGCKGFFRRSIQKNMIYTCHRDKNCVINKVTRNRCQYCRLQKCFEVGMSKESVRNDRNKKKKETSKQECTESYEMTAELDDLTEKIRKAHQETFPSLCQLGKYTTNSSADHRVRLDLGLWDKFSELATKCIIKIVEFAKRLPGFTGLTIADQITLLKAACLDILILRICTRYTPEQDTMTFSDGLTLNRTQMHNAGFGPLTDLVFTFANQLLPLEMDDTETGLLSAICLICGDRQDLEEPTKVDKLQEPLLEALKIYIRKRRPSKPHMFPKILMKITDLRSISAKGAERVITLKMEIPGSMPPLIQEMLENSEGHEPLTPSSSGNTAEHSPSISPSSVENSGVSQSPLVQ

Structure (SMILES): CCOC(=O)/C=C(C)/C=C/C=C(\C)c1cc(C(C)(C)C)cc(C(C)(C)C)c1 [Compound 7, Ethyl (2E, 4E, 6E)-7-(3,5-di-t-butylphenyl)-3-methylocta-2,4,6-trienoate]
retinoid activity of ester analogs (in words) [1]: exhibit retinoid activity

Structure (SMILES): CCOC(=O)/C=C(C)/C=C/C=C(/C)c1cc(C(C)(C)C)cc(C(C)(C)C)c1 [Compound 8, Ethyl (2E, 4E, 6Z)-7-(3,5-di-t-butylphenyl)-3-methylocta-2,4,6-trienoate]
retinoid activity of ester analogs (in words) [1]: exhibit retinoid activity

Next, values leading:

binding on the retinoid receptors (in words) (RAR and RXR receptors): equal or superior binding
RAR activity (in words) (RARs and RXRs; RARs): extremely potent RAR active compounds
activity on RARγ (in words) (RARγ): sub-nanomolar activity on RARγ
Structure (SMILES): CC(/C=C/C=C(\C)c1cc(C(C)(C)C)cc(C(C)(C)C)c1)=C\C(=O)O [Compound 9, (2E, 4E, 6E)-7-(3,5-Di-t-butylphenyl)-3-methylocta-2,4,6-trienoic acid]

binding on the retinoid receptors (in words) (RAR and RXR receptors): equal or superior binding
potency profile in comparison to 9-cis retinoic acid (in words) (RARs and RXRs; versus 9-cis, pan-agonist): superior potency profile
Structure (SMILES): C/C(=C/C=C/C(C)=C/C(=O)O)c1cc(C(C)(C)C)cc(C(C)(C)C)c1 [Compound 10, (2E, 4E, 6Z)-7-(3,5-Di-t-butylphenyl)-3-methylocta-2,4,6-trienoic acid]

EC50 (RXRβ): 28 nM
EC50 (RXRγ): 78 nM
EC50 (RARα): > 10000 nM
EC50 (RARγ; CV-1 cells, 40 hours, read-out: Potency (EC50) RARγ): 320 nM
EC50 (RXRα): 58 nM
EC50 (RARβ): 130 nM
Structure (SMILES): CCc1cc(C)c(\C(C)=C/C=C/C(C)=C/C(=O)O)cc1CC [Compound 54]
